# Test results from patent US11028084B2, “Selective inhibitors of gentotoxic steress-induced IKK/NF-κB pathways” (Max-Delbrück-Centrum für Molekulare Medizin in der …, priority 2016, dated 2021).
# What was measured:
# ATM = biological target: T1, ATM (Homo sapiens, UniProt Q13315); experiment: Enzymatic activity of ATM in γ-irradiated HepG2 cells, WB of ATM and substrate phosphorylation; type: cell-based; conditions: HepG2, γ-irradiation, 60 min; MW01 5 μM, Ku55933 10 μM
# T1 construct: endogenous in cells; host or cells: HepG2
# Method: (§1) FIG. 9: HepG2 cells were pre-incubated with DMSO, MW01 (5 μM) or the ATM inhibitor Ku55933 (10 μM) and irradiated. After 60 min cells were harvested and processed. Immunochemical staining of Western blotting membranes was done using indicated antibodies.
# [1] = tested on: NF-κB target genes NFKBIA, TNFAIP3, CXCL8; experiment: qRT-PCR of NF-κB target genes after irradiation, U2OS cells; type: cell-based, human; conditions: 90 min after irradiation
# Method: (§2) FIG. 14: (A) U2OS cells were pre-treated with different concentrations of olaparib prior to co-treatment with etoposide. Whole cell lysis was performed after 90 min and cleared lysates were used for WB with indicated antibodies. (B) U2OS cells were pre-treated with DMSO, olaparib or the ATM inhibitor Ku55933 and co-treated with etoposide. Cells were harvested after 45 min and subjected to SDS-PAGE/WB. Membranes were stained with the indicated antibodies. The experiment of (B) was performed simultaneously to the experiments of (A) and (E) to control functionality of olaparib in inhibiting PAR chain formation. (C) Densitometrical analyses of (A) and two further independent experiments done as shown in (A). (D) U2OS cells were pre-treated with the substances as indicated prior to irradiation. After 90 min mRNA was isolated, transcribed into cDNA and was used for expression analyses of the indicated genes using quantitative real-time PCR (qRT-PCR). (E) HepG2 cells were pre-treated with the PARP inhibitors olaparib, 3-AB and EB-47 prior to γ-irradiation. Cells were harvested after 15 and 90 min and subjected to SDS-PAGE/WB. Membranes were stained with the indicated antibodies. Error bars equal SEM.
# To quantitate specific mRNA (messenger RNA) species in samples RNA was isolated, RNA concentration was measured and mRNA was transcribed into cDNA. The amount of mRNA transcripts of certain genes within a sample was quantified by employing gene specific primers and using a C-1000 Thermal cycler (Biorad). The expression of genes of interest was normalised against two or three reference genes (HRPT1, RPL_13a and B2M) using the CFX manager software. The fold induction of mRNA was calculated over untreated sample levels by the ΔΔ-Ct method.
# [2] = tested on: genotoxic stress-induced phosphorylation of p65 at S536; experiment: Structure-activity-relationship: p-p65 S536/p65 densitometry after etoposide, U2OS cells; type: cell-based, human; conditions: 10 μM, 2 h prior to etoposide, normalised to DMSO/etoposide
# Method: FIG. 13: (A) U2OS cells were pre-treated with DMSO, MW01 or its derivatives MW01A1-MW01C5 at concentrations of 10 μM for 2 h prior to etoposide treatment. After incubation with etoposide cells were harvested, lysed and subjected to SDS-PAGE/WB. Phospho-[…] p65 signal intensities as well as p65 signal intensities were detected using a CCD camera and band intensities were used for densitometrical analyses. DMSO and etoposide treated control was set to 1. Four independent experiments were performed and statistical outliers were identified and eliminated using Grubb's test. […] (B) NFkB/293/GFP-luc cells were pre-treated with DMSO, MW01 or its derivatives MW01D01-MW01D18 at concentrations of 10 μM for 1.5 h prior to etoposide treatment. After incubation for 4.5 hours NF-κB-dependent luciferase expression was measured by detection of chemoluminescence. DMSO and etoposide treated control was set to 1. Twelve independent experiments were performed.
# Different derivatives of MW01 were obtained (FIG. 12 A) and tested for their ability to inhibit genotoxic stress-induced phosphorylation of p65 at S536. Densitometry of western blot bands was used to quantify signal intensities of the p65 S536 phosphorylation and total p65 amount. The signal intensities of the p65 S536 phosphorylation were normalised to the signal intensities of total p65 and the quotients were normalised to DMSO/etoposide and compared with MW01/etoposide co-treated samples (FIG. 13). […] Compared to MW01, these compounds are derivatives in which the hydroxyl group was exchanged with a small substitute either fluoride, chloride or a methyl group, respectively. Furthermore, MW01C3 and MW01C4 differed in the substitution of the aromatic ring system V (FIG. 12 B) regarding the two methoxy groups that are missing.
# [3] = tested on: genotoxic stress-activated NF-κB signaling; experiment: TAK1 and p65 S536 phosphorylation after γ-irradiation, WB, HepG2 cells; type: cell-based, human; conditions: HepG2, 90 min after irradiation, PARP inhibitors
# Method: FIG. 6: (A) U2OS cells were pre-treated with DMSO or MW01 and irradiated. Stimulation of cell with IL-1β served as a positive control for IκBα and p65 phosphorylation. Cells were lysed at indicated time points and used for WB analyses. (B,C) Similar experimental setup as in (A). (D) Experiment as in (A-C), but with other time points analysed and performed with HepG2 cells. PARP1 and LDH serve as loading controls.
# as §1, §2
# p65 S536 phosphorylation = p65 S536 phosphorylation after γ-IR or etoposide, SDS-PAGE/WB, U2OS cells; type: cell-based, human
# Method: FIG. 3: (A) U2OS cells were pre-treated with increasing concentrations of MW01 in duplicates in a 384 well plate. Then, cells were treated with etoposide, fixed and subjected to IF of p65. Spatial measurement of p65 cytosolic and nuclear localisation was used for calculation of p65 translocation rates. (B) U2OS cells were pre-treated with DMSO, MW01 and irradiated with γ-IR. After 90 min cells were lysed and subjected to SDS-PAGE/WB and EMSA. (C) Cells were pre-treated with different concentrations of MW01 as indicated, treated with γ-IR (C) or etoposide (D) and subjected to WB or EMSA, respectively. LDH in (C) represents the loading control.
# as §2, with “Cells were harvested after 15 and 90 min and subjected to SDS-PAGE/WB. Membranes were stained with the indicated antibodies. Error bars equal SEM.” left out
# After transfer of proteins on PVDF membranes unspecific binding of antibodies was blocked by incubation of membranes in 5% skim milk powder in TBST buffer (or 3% BSA in TBST for phosphorylation-specific antibodies) for 1 h at RT. […] After three times of washing with TBST and once with PBS for 5 min, chemiluminescent photon emission was detected using a CCD camera system (Fusion Solo). […]
# PARP1 [4] = biological target: T2, PARP1 (Mus musculus, UniProt P11103); conditions: MEF, after etoposide administration (Stilmann et al.; 2009); cited from earlier work
# T2 construct: MEF cells were pre-treated with the indicated substances, irradiated and cell lysates were used for poly(ADP)-ribose probing; endogenous in cells; host or cells: MEF (mouse embryonic fibroblasts)
# PARP1 [5] = biological target: T3, PARP1 (Homo sapiens, UniProt P09874); conditions: HepG2, after γ-irradiation (Stilmann et al.; 2009); cited from earlier work
# PARP1 [6] = biological target: T3, PARP1; experiment: PAR chain formation after γ-irradiation, HepG2 cells; type: cell-based; parameters: endogenous in cells; conditions: HepG2, 15 min after irradiation
# Method: as §2
# PARP1 [7] = biological target: T2, PARP1; experiment: PARP1 enzymatic activity, PAR chain formation after γ-irradiation, MEF cells; type: cell-based
# Excerpt: FIG. 10: (A) MEF cells were pre-treated with the indicated substances, irradiated and cell lysates were used for poly(ADP)-ribose probing using a specific antibody. (B) Experiment performed as described for (A), but using U2OS cells.
# [8] = tested on: NF-κB DNA binding activity; conditions: HEK293; data not shown, personal communication; cited from earlier work
# T2 sequence (P11103 whole entry): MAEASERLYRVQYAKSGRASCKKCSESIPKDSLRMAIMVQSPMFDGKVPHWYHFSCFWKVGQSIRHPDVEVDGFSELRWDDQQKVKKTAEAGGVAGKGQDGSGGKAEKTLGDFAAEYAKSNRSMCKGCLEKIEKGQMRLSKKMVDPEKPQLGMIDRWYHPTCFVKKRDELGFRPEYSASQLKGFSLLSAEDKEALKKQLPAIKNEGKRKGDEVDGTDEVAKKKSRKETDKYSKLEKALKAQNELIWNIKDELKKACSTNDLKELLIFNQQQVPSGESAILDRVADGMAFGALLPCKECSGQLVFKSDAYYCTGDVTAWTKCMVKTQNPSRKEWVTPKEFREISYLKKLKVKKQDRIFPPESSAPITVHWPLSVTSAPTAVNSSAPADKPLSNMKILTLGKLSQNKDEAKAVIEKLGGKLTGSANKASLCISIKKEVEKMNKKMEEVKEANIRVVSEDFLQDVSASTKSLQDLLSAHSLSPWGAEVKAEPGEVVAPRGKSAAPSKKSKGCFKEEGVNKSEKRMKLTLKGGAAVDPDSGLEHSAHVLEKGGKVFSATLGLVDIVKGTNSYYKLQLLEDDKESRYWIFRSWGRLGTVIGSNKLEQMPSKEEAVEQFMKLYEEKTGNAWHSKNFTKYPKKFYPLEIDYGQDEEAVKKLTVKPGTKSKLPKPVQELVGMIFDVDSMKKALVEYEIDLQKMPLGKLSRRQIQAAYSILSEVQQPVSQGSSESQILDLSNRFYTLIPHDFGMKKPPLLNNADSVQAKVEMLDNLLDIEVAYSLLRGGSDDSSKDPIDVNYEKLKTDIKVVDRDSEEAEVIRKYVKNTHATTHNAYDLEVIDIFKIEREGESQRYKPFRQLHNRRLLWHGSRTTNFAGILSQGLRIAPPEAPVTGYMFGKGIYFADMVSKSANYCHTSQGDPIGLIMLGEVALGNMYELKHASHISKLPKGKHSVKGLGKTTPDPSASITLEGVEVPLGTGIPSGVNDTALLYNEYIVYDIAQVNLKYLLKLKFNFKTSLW
# T3 sequence (P09874 whole entry): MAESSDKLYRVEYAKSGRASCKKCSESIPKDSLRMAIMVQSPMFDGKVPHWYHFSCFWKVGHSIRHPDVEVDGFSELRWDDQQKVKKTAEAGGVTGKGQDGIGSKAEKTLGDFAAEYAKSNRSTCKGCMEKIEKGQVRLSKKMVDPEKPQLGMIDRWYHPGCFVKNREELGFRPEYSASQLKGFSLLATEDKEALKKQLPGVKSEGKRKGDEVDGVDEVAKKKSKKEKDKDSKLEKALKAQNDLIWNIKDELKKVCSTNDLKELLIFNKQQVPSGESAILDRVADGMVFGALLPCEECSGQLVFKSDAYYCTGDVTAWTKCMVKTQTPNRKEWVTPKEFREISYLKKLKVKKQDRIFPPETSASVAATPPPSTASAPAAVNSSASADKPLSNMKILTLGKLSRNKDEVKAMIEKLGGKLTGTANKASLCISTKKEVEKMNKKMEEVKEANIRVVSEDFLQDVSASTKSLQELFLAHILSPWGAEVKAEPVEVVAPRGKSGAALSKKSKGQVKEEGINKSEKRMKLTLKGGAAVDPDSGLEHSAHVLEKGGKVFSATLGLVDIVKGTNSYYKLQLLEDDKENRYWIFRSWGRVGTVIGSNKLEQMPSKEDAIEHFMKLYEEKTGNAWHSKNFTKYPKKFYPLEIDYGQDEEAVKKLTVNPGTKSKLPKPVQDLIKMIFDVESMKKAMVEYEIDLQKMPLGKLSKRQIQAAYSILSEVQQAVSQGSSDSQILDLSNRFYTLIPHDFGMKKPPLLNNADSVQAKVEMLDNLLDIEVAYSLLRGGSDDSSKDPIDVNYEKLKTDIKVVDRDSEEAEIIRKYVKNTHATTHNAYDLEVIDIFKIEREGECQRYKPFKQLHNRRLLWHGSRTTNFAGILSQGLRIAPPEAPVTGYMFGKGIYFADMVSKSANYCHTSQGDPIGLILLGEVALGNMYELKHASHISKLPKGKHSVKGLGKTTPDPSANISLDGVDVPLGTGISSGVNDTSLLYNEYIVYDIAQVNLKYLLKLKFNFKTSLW
# T1 sequence (Q13315 whole entry): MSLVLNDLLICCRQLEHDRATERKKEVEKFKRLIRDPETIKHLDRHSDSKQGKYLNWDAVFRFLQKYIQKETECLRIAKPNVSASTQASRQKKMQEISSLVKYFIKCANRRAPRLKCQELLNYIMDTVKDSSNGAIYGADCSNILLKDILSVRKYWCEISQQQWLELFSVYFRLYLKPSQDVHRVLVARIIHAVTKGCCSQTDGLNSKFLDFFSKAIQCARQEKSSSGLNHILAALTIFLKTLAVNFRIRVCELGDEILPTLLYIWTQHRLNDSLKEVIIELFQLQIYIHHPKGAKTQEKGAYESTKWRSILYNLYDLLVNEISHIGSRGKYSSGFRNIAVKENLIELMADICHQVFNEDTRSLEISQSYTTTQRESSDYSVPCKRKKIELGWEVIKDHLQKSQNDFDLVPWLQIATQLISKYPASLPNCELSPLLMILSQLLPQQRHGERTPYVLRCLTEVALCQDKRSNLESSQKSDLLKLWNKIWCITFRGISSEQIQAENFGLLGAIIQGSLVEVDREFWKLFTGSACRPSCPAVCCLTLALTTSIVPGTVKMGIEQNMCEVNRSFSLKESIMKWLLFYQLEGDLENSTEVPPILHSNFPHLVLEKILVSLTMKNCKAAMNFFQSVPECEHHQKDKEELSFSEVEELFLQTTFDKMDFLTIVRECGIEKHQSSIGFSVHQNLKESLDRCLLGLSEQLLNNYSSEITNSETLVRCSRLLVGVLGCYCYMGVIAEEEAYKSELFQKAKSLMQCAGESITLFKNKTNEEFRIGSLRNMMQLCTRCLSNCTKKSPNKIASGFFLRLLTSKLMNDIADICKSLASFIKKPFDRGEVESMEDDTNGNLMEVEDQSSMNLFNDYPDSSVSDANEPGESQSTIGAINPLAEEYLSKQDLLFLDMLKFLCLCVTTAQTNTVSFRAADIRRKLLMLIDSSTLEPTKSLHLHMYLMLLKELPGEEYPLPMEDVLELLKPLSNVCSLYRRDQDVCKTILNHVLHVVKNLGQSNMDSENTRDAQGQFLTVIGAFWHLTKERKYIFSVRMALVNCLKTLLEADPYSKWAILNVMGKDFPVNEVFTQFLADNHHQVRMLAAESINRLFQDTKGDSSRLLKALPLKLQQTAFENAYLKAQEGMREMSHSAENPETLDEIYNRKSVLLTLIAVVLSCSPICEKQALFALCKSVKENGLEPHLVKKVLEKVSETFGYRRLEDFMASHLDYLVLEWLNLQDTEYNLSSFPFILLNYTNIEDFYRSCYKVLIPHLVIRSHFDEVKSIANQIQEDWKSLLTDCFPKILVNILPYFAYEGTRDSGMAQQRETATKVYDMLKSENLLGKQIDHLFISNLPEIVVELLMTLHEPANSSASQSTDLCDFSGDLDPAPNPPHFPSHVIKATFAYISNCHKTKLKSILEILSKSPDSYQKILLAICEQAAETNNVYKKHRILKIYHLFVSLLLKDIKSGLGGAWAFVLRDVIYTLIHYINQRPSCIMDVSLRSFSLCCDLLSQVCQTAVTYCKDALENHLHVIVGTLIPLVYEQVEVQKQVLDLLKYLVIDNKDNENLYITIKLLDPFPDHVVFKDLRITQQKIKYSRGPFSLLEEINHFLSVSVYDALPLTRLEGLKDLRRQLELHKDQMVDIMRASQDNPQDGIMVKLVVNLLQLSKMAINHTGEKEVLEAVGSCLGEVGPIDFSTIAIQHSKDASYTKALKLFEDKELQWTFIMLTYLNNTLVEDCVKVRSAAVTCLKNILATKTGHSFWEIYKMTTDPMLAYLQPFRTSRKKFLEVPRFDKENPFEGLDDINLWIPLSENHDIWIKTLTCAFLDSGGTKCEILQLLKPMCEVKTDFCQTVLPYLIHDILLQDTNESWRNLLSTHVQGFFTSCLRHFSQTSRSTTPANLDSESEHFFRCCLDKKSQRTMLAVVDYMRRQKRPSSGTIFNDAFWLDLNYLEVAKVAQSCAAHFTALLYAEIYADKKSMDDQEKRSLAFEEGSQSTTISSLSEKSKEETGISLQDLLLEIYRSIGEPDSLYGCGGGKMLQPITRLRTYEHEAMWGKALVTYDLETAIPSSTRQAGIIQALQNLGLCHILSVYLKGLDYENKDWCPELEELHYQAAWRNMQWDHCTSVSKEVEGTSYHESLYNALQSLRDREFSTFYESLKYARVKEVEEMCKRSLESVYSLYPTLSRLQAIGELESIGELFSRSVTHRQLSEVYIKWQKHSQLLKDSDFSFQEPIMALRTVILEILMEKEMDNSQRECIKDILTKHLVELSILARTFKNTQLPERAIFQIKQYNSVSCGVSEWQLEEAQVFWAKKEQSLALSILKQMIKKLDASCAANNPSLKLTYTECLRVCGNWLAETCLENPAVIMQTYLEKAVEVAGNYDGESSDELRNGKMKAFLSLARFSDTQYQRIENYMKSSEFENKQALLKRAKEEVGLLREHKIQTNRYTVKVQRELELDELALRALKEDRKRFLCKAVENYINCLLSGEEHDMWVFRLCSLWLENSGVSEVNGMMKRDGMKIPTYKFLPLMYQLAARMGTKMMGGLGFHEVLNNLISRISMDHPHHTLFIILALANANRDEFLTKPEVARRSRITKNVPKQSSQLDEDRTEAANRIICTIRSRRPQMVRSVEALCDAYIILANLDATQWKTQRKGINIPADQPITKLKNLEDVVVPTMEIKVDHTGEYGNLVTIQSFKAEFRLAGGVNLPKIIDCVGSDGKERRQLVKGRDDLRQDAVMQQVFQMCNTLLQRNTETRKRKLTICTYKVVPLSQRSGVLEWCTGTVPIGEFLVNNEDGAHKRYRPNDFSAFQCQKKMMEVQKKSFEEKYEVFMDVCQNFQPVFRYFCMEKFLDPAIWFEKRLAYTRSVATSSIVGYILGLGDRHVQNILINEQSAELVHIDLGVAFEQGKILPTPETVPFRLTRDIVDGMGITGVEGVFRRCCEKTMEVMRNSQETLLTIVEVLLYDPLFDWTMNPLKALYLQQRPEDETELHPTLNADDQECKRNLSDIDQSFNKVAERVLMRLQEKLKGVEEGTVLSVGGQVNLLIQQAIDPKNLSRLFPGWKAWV
smiles,measurement,setting,value
"O=c1cc(-c2cccc3c2Sc2ccccc2S3)oc(N2CCOCC2)c1 [KU55933, reference compound]",ATM auto-phosphorylation and phosphorylation of the ATM substrates p53 and KAP1,ATM,inhibited
same,phosphorylation state of p53bp1,ATM,inhibited
same,"NFKBIA, TNFAIP3 and CXCL8 mRNA induction upon irradiation",[1],complete inhibition
"COc1ccc2c3ccnc4c5ccc(OC)c(OC)c5c(=O)n(c2c1)c34 [MW01C1, 6,7,11-trimethoxy-8H-benzo[c]indolo[3,2,1-ij][1,5]naphthyridin-8-one]",p-p65/p65 ratio (inhibition of NF-κB activation following etoposide co-treatment),[2],highly potent derivative
"Cc1ccc2c(c1)c1ccnc3c4ccccc4c(=O)n2c13 [MW01C3, 12-methyl-8H-benzo[c]indolo[3,2,1-ij][1,5]naphthyridin-8-one]",p-p65/p65 ratio (inhibition of NF-κB activation following etoposide co-treatment),[2],lowest p-p65/p65 ratios
"COc1ccc2c(c1OC)c(=O)n1c3ccc(F)cc3c3ccnc2c31 [MW01C2, 12-fluoro-6,7-dimethoxy-8H-benzo[c]indolo[3,2,1-ij][1,5]naphthyridin-8-one]",p-p65/p65 ratio (inhibition of NF-κB activation following etoposide co-treatment),[2],lowest p-p65/p65 ratios
O=C(c1cc(Cc2n[nH]c(=O)c3ccccc23)ccc1F)N1CCN(C(=O)C2CC2)CC1 [olaparib],phosphorylation of p65 at S536,[3],decreased phosphorylation
same,p65 S536 phosphorylation in comparison to DMSO/etoposide co-treated controls,"p65 S536 phosphorylation; 0.63 μM to 10.0 μM, 90 min after etoposide",No significant decrease
same,"signal intensity ratio of S536 phosphorylated p65 and total p65 (densitometry, three experiments)",p65 S536 phosphorylation; etoposide co-treatment,did not influence
same,"NFKBIA, TNFAIP3 and CXCL8 mRNA induction upon irradiation",[1],did not change
NC(=O)c1cccc(N)c1 [Example 3-AB],PAR chain formation and NF-κB binding activity,PARP1 [4],abrogated PAR chain formation and NF-κB binding activity
same,PAR chain formation and NF-κB DNA binding activity,PARP1 [5],inhibited PAR chain formation and NF-κB DNA binding activity
same,PAR chain formation,PARP1 [6],abolished
same,phosphorylation of p65 at S536,[3],decreased phosphorylation
same,PAR chain formation / PARP1 enzymatic activity,PARP1 [7],inhibition of PAR chain formation
same,NF-κB DNA binding activity,[8],did not abolish
Nc1ncnc2c1ncn2[C@@H]1O[C@H](C(=O)N2CCN(CC(=O)Nc3cccc4c3CNC4=O)CC2)[C@@H](O)[C@H]1O [EB-47],PAR chain formation and NF-κB binding activity,PARP1 [4],abrogated PAR chain formation and NF-κB binding activity
same,PAR chain formation,PARP1 [6],abolished
same,phosphorylation of p65 at S536,[3],detected
same,PAR chain formation / PARP1 enzymatic activity,PARP1 [7],inhibition of PAR chain formation
"O=c1c2ccccc2c2nccc3c4cc(Cl)ccc4n1c32 [MW01C4, 12-chloro-8H-benzo[c]indolo[3,2,1-ij][1,5]naphthyridin-8-one]",p-p65/p65 ratio (inhibition of NF-κB activation following etoposide co-treatment),[2],lowest p-p65/p65 ratios
